Laboratory results as given in US20230192617A1, “AZABICYCLIC(THIO)AMIDES AS FUNGICIDAL COMPOUNDS” (Bayer CropScience Aktiengesellschaft, priority 2020, published 2023).

Assays:
[1] = test system: Alternaria brassicae; assay: In vivo preventive test on Alternaria brassicae (leaf spot on radish or cabbage); conditions: 500 ppm of active ingredient, preventive spray on radish or cabbage, evaluated 3 to 4 days after inoculation, read-out: efficacy
In short: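 Young radish or cabbage plants were sprayed with compound dissolved in DMSO/acetone/Tween 80 and diluted in water; controls received solvent only. Inoculation by spraying A. brassicae spore suspension 24 h later, then 3–4 days at 20 °C and 100% relative humidity.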

[2] = test system: Colletotrichum lindemuthianum; assay: In vivo preventive test on Colletotrichum lindemuthianum (leaf spot on bean); conditions: 168 h, 500 ppm of active ingredient, preventive spray on bean, evaluated 7 days after inoculation, read-out: efficacy
Protocol: B-5. In Vivo Preventive Test on Colletotrichum lindemuthianum (Leaf Spot on Bean) [table] The active ingredients were made soluble and homogenized in a mixture of Dimethyl sulfoxide/Acetone/Tween® 80 and then diluted in water to the desired concentration. The young plants of bean were treated by spraying the active ingredient prepared as described above. Control plants were treated only with an aqueous solution of Acetone/Dimethyl sulfoxide/Tween® 80. After 24 hours, the plants were contaminated by spraying the leaves with an aqueous suspension of Colletotrichum lindemuthianum spores. The contaminated bean plants were incubated for 24 hours at 20° C. and at 100% relative humidity and then for 6 days at 20° C. and at 90% relative humidity.

[3] = test system: Alternaria alternata; assay: Alternaria alternata in vitro cell test; assay type: cell-based; conditions: 120 h, 20 ppm of active ingredient, liquid culture, 5 days incubation, spectrometric measurement of mycelium growth, read-out: efficacy (inhibition of fungal growth)
In short: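 Liquid culture assay in which A. alternata spores in medium received DMSO-solubilized compound (final DMSO ≤1%). After 5 days, mycelium growth was measured spectrometrically. Inhibition was calculated against fungicide-free control wells.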

[4] = test system: Sphaerotheca fuliginea; assay: In vivo preventive test on Sphaerotheca fuliginea (powdery mildew on cucurbits); conditions: Podosphaera fuliginea, 192 h; 500 ppm of active ingredient; preventive spray on gherkin; evaluated 8 days after inoculation; read-out: efficacy
In short: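 Young gherkin plants were sprayed with compound in DMSO/acetone/Tween 80 diluted in water. They were inoculated 24 h later with a spore suspension of Sphaerotheca fuliginea. Plants were then kept for 8 days at 20 °C and 70–80% relative humidity.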

[5] = test system: Botrytis cinerea; assay: In vivo preventive test on Botrytis cinerea (grey mould); conditions: 500 ppm of active ingredient, preventive spray on gherkin or cabbage, evaluated 4 to 5 days after inoculation, read-out: efficacy
In short: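 Young gherkin or cabbage plants were sprayed with compound in DMSO/acetone/Tween 80 diluted in water, then inoculated 24 hours later with a B. cinerea spore suspension. Incubation lasted 4 to 5 days: gherkin at 17° C., 90% relative humidity; cabbage at 20° C., 100% relative humidity.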

[6] = test system: Pyrenophora teres; assay: In vivo preventive test on Pyrenophora teres (net blotch on barley); conditions: 240 h, 500 ppm of active ingredient, preventive spray on barley, evaluated 10 days after inoculation, read-out: efficacy
Protocol: B-3. In Vivo Preventive Test on Pyrenophora Teres (Net Blotch on Barley) [table] The active ingredients were made soluble and homogenized in a mixture of Dimethyl sulfoxide/Acetone/Tween® 80 and then diluted in water to the desired concentration. The young plants of barley were treated by spraying the active ingredient prepared as described above. Control plants were treated only with an aqueous solution of Acetone/Dimethyl sulfoxide/Tween® 80. After 24 hours, the plants were contaminated by spraying the leaves with an aqueous suspension of Pyrenophora teres spores. The contaminated barley plants were incubated for 48 hours at 20° C. and at 100% relative humidity and then for 8 days at 20° C. and at 70-80% relative humidity.

[7] = test system: Colletotrichum lindemuthianum; assay: B-8. Colletotrichum lindemuthianum in vitro cell test; assay type: cell-based; conditions: 144 h, 20 ppm of active ingredient, 6 days incubation, liquid culture, absorbance, read-out: efficacy (inhibition of fungal growth)
In short: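 Spore suspension of C. lindemuthianum in liquid medium exposed to DMSO-solubilized compounds (final DMSO ≤1%) for 6 days. Mycelial growth read by absorbance, with inhibition calculated relative to compound-free control wells.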

[8] = Measurement of Log P values by HPLC on reversed phase columns (EEC directive 79/831 Annex V.A8); assay type: physicochemical; conditions: reversed phase HPLC column
In short: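 Reversed-phase HPLC with UV detection per EEC 79/831 Annex V.A8, linear 10–95% acetonitrile gradient. Aqueous eluent: 0.1% formic acid (acidic), 0.001 M ammonium acetate (neutral), or 0.1% phosphoric acid (acidic); multiple values in one method joined by "+".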

[9] = test system: Botrytis cinerea; assay: B-11. Botrytis cinerea in vitro cell test; assay type: cell-based; conditions: 144 h, 20 ppm of active ingredient, 6 days incubation, liquid culture, absorbance, read-out: efficacy (inhibition of fungal growth)
In short: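 B. cinerea spores were grown in liquid culture with compound (DMSO ≤1% final). Mycelium growth was measured spectrometrically after 6 days, with inhibition taken as absorbance relative to untreated control wells.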

[10] = test system: Pyrenophora teres; assay: B-10. Pyrenophora teres in vitro cell test; assay type: cell-based; conditions: 144 h, 20 ppm of active ingredient, 6 days incubation, liquid culture, absorbance, read-out: efficacy (inhibition of fungal growth)
In short: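 Liquid-culture assay on a P. teres spore suspension with compounds added to the medium from DMSO solutions, final DMSO ≤1%. Mycelium growth read spectrometrically after 6 days. Inhibition calculated from absorbance against untreated control wells.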

[11] = method [a]: LC-UV, acidic range, 0.1% formic acid in water and acetonitrile as eluent

SMILES | pest or weed control at 500 ppm [1] [%] | pest or weed control at 500 ppm [2] [%] | inhibition at 20 ppm [3] [%] | pest or weed control at 500 ppm [4] [%] | pest or weed control at 500 ppm [5] [%] | pest or weed control at 500 ppm [6] [%] | inhibition at 20 ppm [7] [%] | chromatographic logP [8, 11] | inhibition at 20 ppm [9] [%] | chromatographic logP ([8]; method [b]: LC-UV, neutral range, 0.001 molar ammonium acetate solution in water and acetonitrile as eluent) | inhibition at 20 ppm [10] [%]
O=C(NC[C@H](F)c1ccc(Br)cc1Cl)c1c(Oc2cccc(C(F)F)c2)nnc2ccccc12 (racemic) [I-029] | 90 to 100 | 90 to 100 | 90 to 100 | 70 to 79 | 90 to 100 | 70 to 79 | 90 to 100 | 4.01 |  |  | 
Cc1ccc([C@@H](F)CNC(=O)c2c(Oc3cccc(Cl)c3)nnc3ccccc23)cc1C (racemic) [I-048] | 90 to 100 | 90 to 100 | 90 to 100 |  | 90 to 100 | 90 to 100 | 90 to 100 | 4.05 | 90 to 100 |  | 
O=C(NC[C@H](F)c1ccc(Cl)cc1Cl)c1c(Oc2cccc(C(F)(F)F)c2)cnc2c1OCCO2 (racemic) [I-108] | 90 to 100 | 90 to 100 | 90 to 100 | 90 to 100 | 90 to 100 | 90 to 100 | 90 to 100 | 3.77 |  |  | 
Cc1ccc2c(c1)CCC[C@@H]2NC(=O)c1c(Oc2cccc(C(F)(F)F)c2)cnc2c1OCCO2 (racemic) [I-112] | 90 to 100 | 90 to 100 | 90 to 100 | 90 to 100 | 90 to 100 | 80 to 89 | 90 to 100 | 3.8 |  | 3.79 | 
Cc1ccc(C(F)(F)CNC(=O)c2c(Oc3cccc(C4CC4)c3F)nnc3c2N[C@@H](O)CC3)c(C)c1 (racemic) [I-116] | 90 to 100 | 90 to 100 | 90 to 100 | 90 to 100 | 90 to 100 | 80 to 89 | 90 to 100 | 3.74 |  |  | 
Cc1cccc(Oc2nnc3ccccc3c2C(=O)NCC(F)(F)c2ccc(Br)cc2Cl)c1 [I-015] | 90 to 100 |  | 90 to 100 | 90 to 100 | 90 to 100 | 70 to 79 | 90 to 100 | 4.37 |  |  | 
Cc1cccc(Oc2nnc3ccccc3c2C(=O)NCC(F)(F)c2ccc(C)cc2C)c1 [I-017] | 90 to 100 |  | 90 to 100 | 90 to 100 | 90 to 100 | 70 to 79 | 90 to 100 | 4.11 |  |  | 
Cc1ccc(C(F)(F)CNC(=O)c2c(Oc3cccc(Cl)c3)nnc3ccccc23)c(C)c1 [I-024] | 90 to 100 | 90 to 100 | 90 to 100 | 90 to 100 | 90 to 100 | 70 to 79 | 90 to 100 | 4.2 |  |  | 
Cc1ccc(C(F)(F)CNC(=O)c2c(Oc3cccc(C(F)F)c3)nnc3ccccc23)c(C)c1 [I-033] | 90 to 100 | 80 to 89 | 90 to 100 | 90 to 100 | 90 to 100 | 70 to 79 | 90 to 100 | 3.92 |  |  | 
Cc1ccc(C(F)(F)CNC(=O)c2c(Oc3cccc(C(F)(F)F)c3)cnc3ccoc23)c(C)c1 [I-066, N-[2-(2,4-dimethylphenyl)-2,2-difluoro-ethyl]-6-[3-(trifluoro-methyl)phenoxy]furo[3,2-b]pyridine-7-carboxamide] | 90 to 100 |  | 90 to 100 | 90 to 100 | 90 to 100 | 70 to 79 | 90 to 100 | 4.14 | 90 to 100 |  | 90 to 100
Cc1ccc(CCNC(=O)c2c(Oc3cccc(C(F)(F)F)c3)nnc3c2OCCO3)c(C)c1 [I-104] | 90 to 100 | 90 to 100 | 90 to 100 | 90 to 100 | 90 to 100 | 80 to 89 | 80 to 89 | 3.28 |  |  | 
O=C(NCC(F)(F)c1ccc(Br)cc1Cl)c1c(Oc2cccc(C(F)(F)F)c2)cnc2c1OCCO2 [I-107, N-[2-(4-bromo-2-chloro-phenyl)-2,2-difluoro-ethyl]-7-[3-(tri-fluoromethyl)phenoxy]-2,3-dihydro-[1,4]dioxino[2,3-b]pyridine-8-carboxamide] | 90 to 100 | 90 to 100 | 90 to 100 | 90 to 100 | 90 to 100 | 80 to 89 | 90 to 100 | 3.94 |  |  | 
Cc1ccc(C(F)(F)CNC(=O)c2c(Oc3cccc(C(F)(F)F)c3)cnc3c2OCCO3)c(C)c1 [I-109] | 90 to 100 | 90 to 100 | 90 to 100 | 90 to 100 | 90 to 100 | 90 to 100 | 90 to 100 | 3.71 |  |  | 
Cc1ccc(CCNC(=O)c2c(Oc3cccc(C(F)(F)F)c3)cnc3c2OCCO3)c(C)c1 [I-110] | 90 to 100 | 90 to 100 | 90 to 100 | 90 to 100 | 90 to 100 | 90 to 100 | 90 to 100 | 3.6 |  |  | 
Cc1ccc(C(F)(F)CNC(=O)c2c(Oc3cccc(C4CC4)c3)nnc3ccccc23)c(C)c1 [I-218] | 90 to 100 | 90 to 100 | 90 to 100 |  | 90 to 100 | 80 to 89 | 90 to 100 | 4.45 | 90 to 100 |  | 90 to 100
Cc1ccc(CCNC(=O)c2c(Oc3cccc(C(F)(F)F)c3)nnc3ccccc23)c(C)c1 [I-230] | 90 to 100 |  | 90 to 100 | 90 to 100 | 90 to 100 | 80 to 89 | 90 to 100 |  | 90 to 100 |  | 
Cc1ccc(CCNC(=O)c2c(Oc3cccc(C(F)(F)F)c3)nnc3ccsc23)c(C)c1 [I-231] | 90 to 100 |  |  | 90 to 100 |  | 70 to 79 |  | 4.77 | 80 to 89 |  | 
